Data from patent US9873705B2, “Vinylogous thioester compounds and methods of use” (THE TRUSTEES OF DARTMOUTH COLLEGE, priority 2015, dated 2018).
Entries after “also recorded” stand apart in the source; their conditions may differ.

Key:
Format in all cases: cell-based, human
U87-MG cells [1] = experiment: U87-MG viability with NAC pretreatment, alamarBlue; details: 2 hour pretreatment with 5 mM NAC, then 72 hours Y102
Procedure: The data for FIG. 6 was obtained as follows: U87-MG cells were plated at a concentration of 5,000 cells/well into 96-well plates and allowed to adhere overnight. The following day, cells were pretreated with 5 mM N-acetyl cysteine (NAC) or the equivalent volume of DMSO 2 h prior to treatment with Y102 at concentrations ranging from 0 to 20 μM for 72 h. Three hours prior to collection, alamarBlue (Thermo Scientific) was added to a final concentration of 5% v/v. AlamarBlue fluorescence was determined with a Spectramax M2 (Molecular Devices) plate reader at an excitation of 544 nm and an emission of 590 nm using SoftMax Pro 3 software. Results were plotted as a percentage compared to DMSO control using GraphPad Prism software (FIG. 6).

U87-MG cells [2] = experiment: U87-MG cell viability, alamarBlue, washout; details: 2 hour treatment then washout compared to 72 hour treatment; 0 to 20 μM
Procedure: Growth inhibition assays as described above were performed on ira2Δ yeast cells and NF1-deficient glioblastoma cells. Log-phase yeast were grown at 30° C. starting at an OD600 of 0.05 in 96-well plates with Y102 at concentrations ranging from 0 to 100 μM. Following 18 h treatment, OD600 was measured using a THERMOmax (Molecular Devices) microplate reader and SOFTmax Pro 4.3 LS software. Results were plotted as a percentage compared to DMSO control using GraphPad Prism software. Graph represents an average of three experiments with four technical replicates per experiment (FIG. 2A). In a similar experiment U87-MG cells were plated at a concentration of 5,000 cells/well into 96-well plates and allowed to adhere overnight. The following day, cells were treated with Y102 at concentrations ranging from 0 to 20 μM for up to 72 h. For treatments less than 72 h, treatment media was removed at the indicated time points and replaced with normal growth medium. Three hours prior to collection, alamarBlue (Thermo Scientific) was added to a final concentration of 5% v/v. AlamarBlue fluorescence was determined with a Spectramax M2 (Molecular Devices) plate reader at an excitation of 544 nm and an emission of 590 nm using SoftMax Pro 3 software. Results were plotted as a percentage compared to DMSO control using GraphPad Prism software (FIG. 2B). […]

[3] = system: mitochondrial marker Tom20 in U87-MG cells; experiment: Tom20 flow cytometry (mitochondrial fluorescence); details: 20 h, 2 or 2.75 μM
Procedure: The data for FIG. 8 was obtained as follows: U87-MG cells were plated at a concentration of 500,000 cells/well in a 6-well plate and allowed to adhere overnight. Cells were treated for 4 h with DMSO, followed by a 20 h cotreatment with DMSO, 2 μM Y102, 2.75 μM Y102, or 50 μM HCQ. Following treatment, cells were harvested using 0.25% trypsin, rinsed with PBS, and fixed for 20 minutes at 4° C. using BD Cytofix/Cytoperm fixation and permabilization solution (BD Biosciences). Following 2 washes with BD Perm/Wash buffer (BD Biosciences), cells were stained for 30 minutes at 4° C. in the dark for the mitochondrial marker Tom20 using anti-Tom20 FL-145 (Santa Cruz, 1:200). Following an additional 2 washes with BD Perm/Wash buffer, cells were stained with goat anti-rabbit 488 (Jackson ImmunoResearch Laboratories) secondary antibody for 30 minutes at 4° C. in the dark. Cells were washed twice with BD Perm/Wash buffer, resuspended in 0.5 mL PBS, and filtered prior to analysis. The cells were transferred to flow cytometry tubes and analyzed using a MacsQuant VYB 8-color flow cytometer. Tom20 fluorescence was detected using the B1-A (FITC) channel. 35,000 events/sample were collected and cellular debris was gated out of the dataset. Histograms were generated using the FlowLogic flow cytometry analysis software package.

ROS in U87-MG cells = experiment: ROS detection by DCF-DA immunofluorescence; details: Y102 2.2 or 4.5 μM 24 h, S1 20 μM 1 h, vs DMSO
Procedure: Damaged mitochondria generate and accumulate reactive oxygen species (ROS), which are damaging to the cell. RAS dysregulated tumors are reported to depend on autophagy in order to remove the damaged mitochondria and allow for their survival (22). […] The ROS detection reagent DCF-DA, which is converted to its fluorescent form DCF upon ROS-mediated oxidation, was used to examine if ROS levels increase with Y102 treatment.
The data for FIG. 5 was obtained as follows: U87-MG cells were plated on poly-D-lysine (Neuvitro Corporation) coated coverslips at a concentration of 50,000 cells/well in a 24-well plate and allowed to adhere overnight. Cells were treated for 24 h with DMSO, 2.2 μM Y102, or 4.5 μM Y102, or for 1 h with 20 μM S1. 30 minutes prior to treatment end, cells were stained with 20 μM 2′, 7′-dichlorofluorescin diacetate (DCFDA, Sigma, green) at 37° C. Following staining, cells were fixed for 10 minutes with 3.7% formaldehyde. After an additional two washes with PBST, cell nuclei were stained with 0.33 μg/mL DAPI (Molecular Probes) for 30 minutes (blue). Coverslips were mounted on glass slides with ProLong Gold antifade medium. Wide-field images were taken with a Zeiss Imager Z1 wide-field microscope using a 40×1.3 NA EC Plan-NEOFLUAR objective and Zeiss Axiovision software. Scale bar, 20 μm.

For `Cn1cnnc1S/C=C/C(=O)c1ccc(F)cc1` [Y102], which “sensitivity to Y102 after NAC pretreatment” value (U87-MG cells [1]) is on record?
Its value is “reversed sensitivity to Y102; also recorded: rescued”.

What about the “reversibility of effect on U87-MG cell viability” value (U87-MG cells [2]) of the same compound?
Its value is “irreversible”.

And the “mitochondrial fluorescence / accumulation (Tom20)” value [3]?
Its value is “increase in mitochondrial fluorescence; also recorded: accumulation of the mitochondria”.

What about the “ROS accumulation (DCF-DA)” value (ROS in U87-MG cells) of the same compound?
Its value is “ROS were found to accumulate; also recorded: accumulation of ROS”.
